Like-named read-outs stand apart in the source and are kept apart here.
Legend:
[1] = parameters: species or system ICR mice; details: ICR, mouse, in vivo
Description: Referring to Table 3, ZT-1a pharmacokinetics were determined following a single 5 mg/kg intravenous (IV) dose and a single 10 mg/kg oral (PO) dose in ICR mice (N=3 at each time point). Blood samples were collected at 0.08, 0.25, 0.5, 1, 2, 4, 8, 10 & 24 hr (IV) & 0.25, 0.5, 1, 2, 4, 8, 10 & 24 hr (PO) post dose. Samples were subjected to drug assay by LC-MS/MS, and data were analyzed by WinNonlin V6.3. Tmax=time of maximum plasma concentration, Cmax=maximum plasma concentration, AUC=area under the curve (measure of exposure), T1/2=half life, CL=plasma clearance, Vz=volume of distribution, MRT, mean residence time; F=oral bioavailability.

[2] = system: SPAK Ser373, NKCC1 Thr203/207/212 and KCCs phosphorylation; assay: Phosphorylation immunoblot in HEK293 cells; format: cell-based, human
Description: HEK293 (human embryonic kidney 293) cells were cultured on 10-cm-diameter dishes in DMEM supplemented with 10% (v/v) foetal bovine serum, 2 mM L-glutamine, 100 U/ml penicillin and 0.1 mg/ml streptomycin. HEK293 cells were transfected with a mixture of 20 μl of 1 mg/ml polyethylenimine (Polysciences) and 5-10 μg of plasmid DNA as described previously (Durocher et al., 2002). 36 hours post-transfection cells were stimulated with either control isotonic or hypotonic medium for a period of 30 minutes. Cells were lysed in 0.3 mL of ice-cold lysis buffer/dish, lysates were clarified by centrifugation at 4° C. for 15 minutes at 26,000 g and the supernatant aliquots were frozen in liquid nitrogen and stored at −20° C. Protein concentrations were determined using the Bradford method. Cells were treated with the indicated concentrations of the SPAK/OSR1 inhibitors. […] Hypotonic low chloride buffer was 67.5 mM sodium-gluconate, 2.5 mM potassium-gluconate, 0.25 mM CaCl2), 0.25 mM MgCl2, 0.5 mM Na2HPO4, 0.5 mM Na2SO4 and 7.5 mM HEPES (pH 7.5).
The membranes were incubated for 30 min with TBST (Tris-buffered saline, 0.05% Tween-20) containing 5% (w/v) skim milk. […] After repeating the washing steps, signals were detected with enhanced chemiluminescence reagent. […] The densities of bands were measured with ImageJ. […]

[3] = system: Ang II-mediated hypertensive mice, pdMCAO; assay: Infarct volume and hemispheric swelling after pdMCAO in Ang II-infused mice; format: in vivo, mouse; details: Ang II-infused mice (male or female); 2.5 mg/kg i.p. at 3 and 8 hrs after pdMCAO; 24 hrs; vs Veh
Description: C57BL/6J mice received subcutaneous (s.c.) infusion of either saline or AngII via osmotic minipumps (model 1004, Alzet) at a rate of 1000 ng/kg/min for 14 days. BP was measured in awake mice by a tail-cuff method (Kent Scientific) as described previously (Huang et al. (2019) Stroke. 50:1021-1025).
Saline-infused control and Ang II-mediated HTN mice were subsequently underwent permanent occlusion of the distal branches of the middle cerebral artery (pdMCAO) as described previously (Huang et al. (2019) Stroke. 50:1021-1025). Under isoflurane anesthesia, a skin incision at the midline of the neck was made and the left CCA was exposed and occluded by ligation and the skin was sutured. Another skin incision (1 cm) was made between the left eye and the ear using fine operation scissors. The temporal muscle was identified and detached from the skull in its apical and dorsal part without totally removing the muscle by the forceps. The MCA below the transparent skull in the rostral part of the temporal area, dorsal to the retro-orbital sinus was identified. If the MCA bifurcation was not visible (due to an anatomical normal variation), the most rostral vessel was identified. […] The artery, proximal and distal to the MCA bifurcation, was coagulated with the electrocoagulation forceps (in a bipolar mode at 7 W). […] The animal was placed in a cage and monitored for recovery from anesthesia. […]

humans = details: in vivo, 25 mg/kg; cited from earlier work

Row | Structure (SMILES) | AUC [1] | C0 ([1]; iv, 5 mg/kg) | Cl ([1]; iv, 5 mg/kg) | MRT(0-∞) ([1]; iv, 5 mg/kg) | Vz ([1]; iv, 5 mg/kg) | MRT(0-∞) ([1]; po, 10 mg/kg) | concentration inhibiting phosphorylation of SPAK Ser373, NKCC1 Thr203/207/212 and KCCs [2] | effect on SPAK/OSR1 Ser373/Ser325 and NKCC1 Thr203/Thr207/Thr212 phosphorylation ([2]; dose-dependent (1-10), hypotonic low Cl- and isotonic conditions) | decrease of hemispheric swelling [3] | decrease of infarct volume [3] | adverse effects in humans (humans)
1 | Cc1cc(C(C#N)c2ccc(Cl)cc2)c(Cl)cc1NC(=O)c1cc(Cl)ccc1O (centres unmarked) [ZT-1a, 5-chloro-N-(5-chloro-4-((4-chlorophenyl)(cyano)methyl)-2-methylphenyl)-2-hydroxy-benzamide] | 2.34 µg·h/mL | 14.9 µg/mL | 2.13 L/h/kg | 0.45 h | 0.948 L/kg | 3.3 h | 3 µM | markedly inhibited | ~50% | ~50% | 
2 | Cc1cc(C(C#N)c2ccc(Cl)cc2)c(Cl)cc1NC(=O)c1cc(I)cc(I)c1O (centres unmarked) [Closantel] |  |  |  |  |  |  |  |  |  |  | weakness, visual impairment and blindness

From patent US11414379B2, “SPAK kinase inhibitors as neuroprotective agents” (United States Government as represented by the Department …, priority 2018, dated 2022)
